{
  "source": "patent US20110207689A1",
  "about": "“THE TREATMENT OF HEARING LOSS” (Auckland UniServices Limited, priority 2008, published 2011)",
  "key": {"noise-exposed cochlea": {"tested_on": "noise-exposed cochlea", "details": "pre-treatment (prophylactic), reference [6], cited from earlier work"}, "[1]": {"tested_on": "inner hair cell receptor potential", "assay": "Summating potential (SP) thresholds during cochlear perfusion, ambient noise levels", "assay_type": "in vivo, Wistar rats", "details": "for effect on SP thresholds: RWM perfusion 90 minutes, adenosine 10 mM, CCPA 1 mM, rats at ambient noise", "experimental": "SP thresholds, representing the inner hair cell receptor potential, were measured at frequencies ranging from 4-26 kHz prior to perfusion of artificial perilymph (AP; baseline), after AP perfusion and after perfusion with adenosine receptor agonists adenosine and CCPA. Data presented as mean±SEM (n=8). *p<0.05 **p<0.01, one way ANOVA with Tukey's multiple comparison test. AP, artificial perilymph (control); adenosine (10 mM), non-selective adenosine receptor agonist; CCPA (1 mM), selective A1 adenosine receptor agonist; CGS-21680 (0.2 mM), selective A2A receptor agonist; SCH-58261, selective A2A receptor antagonist.\n(§1) As a foundation for the noise studies and to determine the general effect of selective adenosine receptor agonists on the cochlea, auditory function was first evaluated in control animals using the summating potential (SP; measure of the inner hair cell receptor potential) and the compound action potential (CAP; measure of the neural afferent output). This was undertaken to determine the background influence of adenosine receptor activation in the normal cochlea as a platform for the studies in noise-exposed animals.\nAnimals were anaesthetized (sodium pentobarbital; 60 mg/kg i.p.) and placed on a thermostatically regulated blanket connected to a remote homeothermal control unit (Harvard Apparatus, Holliston, Mass., USA) to maintain stable body temperature (37.5° C.) via a rectal thermocouple probe (Harvard Apparatus). The head of the animal was placed on a heated (38° C. surface temperature) stereotaxic head-holder, connected to a heat block temperature controller (Bio-Medical Engineering Services, University of Auckland, New Zealand). The animals were artificially ventilated and the auditory bulla was exposed using a ventrolateral approach. The perfusion line was inserted close to the round window membrane (RWM). The RWM was perfused with test solutions containing A1, or A2A adenosine receptor agonists at […] using a Harvard Apparatus Series PHD 22/2000 syringe pump. Adenosine receptor agonists adenosine (10 mM), CCPA (1 mM), CGS-21680 (200 μM), alone or in combination with adenosine receptor antagonist SCH-58261 (200 μM), were perfused for 90 minutes. Sound-evoked cochlear responses (CAP and SP) to pure tone stimuli (4-28 kHz) were recorded from a silver wire electrode placed onto the cochlear round window. These responses were measured using a Tucker-Davis System II for the presentation of tone stimuli and acquisition of the electrical potentials via a Grass P16 Pre-amplifier."}, "[2]": {"tested_on": "rats exposed to broad band noise for 24 hours at 110 dBSPL", "assay": "ABR after broad band noise, adenosine receptor agonists delivered onto the round window membrane (Experiment 3)", "assay_type": "in vivo, Wistar rats", "details": "for post-treatment ABR thresholds for clicks and pure tones: 48 hours after administration to the RWM, CGS-21680 200 μM; for post-treatment ABR thresholds for clicks and pure tones / ABR threshold recovery for clicks: adenosine 10 mM; for post-treatment ABR thresholds for clicks and pure tones / ABR threshold recovery for pure tones (up to) / ABR threshold recovery for clicks: CCPA 1 mM; for ABR threshold recovery for pure tones (up to) / ABR threshold recovery for clicks: single dose onto RWM 6 hours after noise, ABR 48 hours after treatment; for ABR threshold recovery for pure tones (up to): adenosine 10 mM (16 kHz)", "experimental": "ABRs were measured in response to auditory clicks (a) and pure tones (b-e) before noise exposure (baseline), 30 minutes after noise exposure (pre-treatment) and 48 hours after administration of adenosine receptor agonists (post-treatment). All drugs were delivered onto the cochlear round window membrane (f) Threshold recovery is defined as ABR post-treatment minus ABR pre-treatment. Data are expressed as means±SEM (n=8). *p<0.05; **p<0.01; ***p<0.001; one way ANOVA with Tukey's multiple comparison test. AP, artificial perilymph (control); adenosine (10 mM), non-selective adenosine receptor agonist; CCPA (1 mM), selective A1 adenosine receptor agonist; CGS-21680 (0.2 mM), selective A2A receptor agonist.\nRats were exposed to a broadband noise presented for 24 hours at 90, 100, or 110 dBSPL. Noise exposures were carried out in a custom-built acoustic chamber (Shelburg Acoustics, Sydney, Australia) with internal speakers and external controls (sound generator and frequency selector). The sound levels in the cage were measured using a calibrated Rion NL-49 sound level meter to ensure minimal deviations of sound intensity. The animals had free access to food and water during the exposure.\nAuditory thresholds in noise-exposed animals were measured using auditory brainstem responses (ABR), which represent the sound evoked potentials from the auditory nerve and brainstem auditory nuclei. ABR measurements were recorded at least 24 hours prior to noise exposure (baseline) and then 30 min after noise exposure (pre-treatment). Adenosine receptor agonists or vehicle control were then delivered to the cochlear round window (around 6 hours post-noise) and ABR measurement was then repeated 48 hours after drug administration (post-treatment). ABR measurements were performed in a sound attenuator chamber (Shelburg Acoustics, Sydney, Australia). The rats were anesthetized with ketamine (75 mg/kg) and xylazine (10 mg/kg) and their body temperature was maintained at 38° C. with a heating pad as described. ABRs were obtained by placing fine platinum electrodes subdermally at the mastoid region of the ear of interest (active electrode), scalp vertex (reference) and mastoid region of the opposite ear (ground electrode). A series of auditory clicks or pure tones (4-28 kHz) presented at varying intensity and thresholds generated electrical activity reflecting differing levels of auditory processing. The sound threshold of the ABR complex (waves I-IV) were determined by progressively attenuating the sound intensity until the waveform was no longer observed. The acoustic stimuli for ABR were produced, and the responses, recorded, using a Tucker-Davis Technologies auditory physiology workstation (Alachua, Fla., USA) controlled by computer-based digital signal processing package and software (BioSig, Alachua, Fla., USA). ABR potentials were evoked with digitally produced 5 ms tone pips (0.5 ms rise-fall time) at frequencies between 4 and 28 kHz in half-octave steps. Sound pressure level (SPL) was raised in 5 dB steps starting from 10 dB below threshold level to 90 dB SPL. Responses were averaged at each sound level (1024 repeats with stimulus polarity alternated), and response waveforms were discarded when peak-to-peak amplitude exceeded 15 μV (artefact reject). The ABR threshold was defined as the lowest intensity (to the nearest 5 dB) at which a response could be visually detected above the noise floor. The animals were euthanised after hearing assessment and the cochleae collected for immunohistochemical assessment of free radical damage.\nSix hours after exposure to broad band noise (110 dBSPL for 24 hours), adenosine receptor agonists were delivered to the round window membrane (RWM) in the left cochlea, whilst the contralateral ear served as untreated control. […]"}, "[3]": {"tested_on": "nitrotyrosine immunoreactivity in the noise-exposed cochlea", "assay": "Nitrotyrosine immunohistochemistry, semi-quantitative, noise-exposed cochleae treated topically (Experiment 3)", "assay_type": "in vivo, Wistar rats", "details": "middle turn, adenosine 10 mM or CCPA 1 mM onto RWM, p<0.01", "excerpt": "No immunostaining was detected when the nitrotyrosine antibody was omitted. (B). Semi-quantitative analysis of nitrotyrosine immunoreactivity. Abbreviations: cc, Claudius cells; dc, Deiters' cells; hc, Hensen's cells; idc, interdental cells; is, inner sulcus cells; ihc, inner hair cells; ohc, outer hair cells; opc, outer pillar cells. Scale bars: 50 μm. Data are expressed as means±SEM (n=4 animals per group). **p<0.01; ***p<0.001; one way ANOVA with Tukey's multiple comparison test.\nNitrotyrosine formation in the noise-exposed cochlea was assessed by immunohistochemistry. […] Immunoperoxidase reaction was detected using a secondary biotin-conjugated goat anti-rabbit IgG, followed by reaction visualisation using an avidin-biotin-peroxidase complex (ABC kit, Vector Laboratories) and diaminobenzidine (DAB kit, Vector). […] Images were analyzed using identical acquisition parameters and immunolabeling was semi-quantified using ImageJ software (v.1.38x, NIH, USA). […] Regions of interest were selected and their immunostaining intensity histograms obtained and expressed as mean pixel intensity after greyscale conversion. Between 15 and 32 images of the middle cochlear turn were analyzed in each group (n=4 animals per group) in a double-blind manner."}, "[4]": {"tested_on": "neural afferent output of the cochlea", "assay": "Compound action potential (CAP) thresholds during cochlear perfusion, ambient noise levels", "assay_type": "in vivo, Wistar rats", "details": "RWM perfusion; data not shown", "excerpt": "as §1\nAnimals were anaesthetized (sodium pentobarbital; 60 mg/kg i.p.) and placed on a thermostatically regulated blanket connected to a remote homeothermal control unit (Harvard Apparatus, Holliston, Mass., USA) to maintain stable body temperature (37.5° C.) via a rectal thermocouple probe (Harvard Apparatus). The head of the animal was placed on a heated (38° C. surface temperature) stereotaxic head-holder, connected to a heat block temperature controller (Bio-Medical Engineering Services, University of Auckland, New Zealand). […] Sound-evoked cochlear responses (CAP and SP) to pure tone stimuli (4-28 kHz) were recorded from a silver wire electrode placed onto the cochlear round window. These responses were measured using a Tucker-Davis System II for the presentation of tone stimuli and acquisition of the electrical potentials via a Grass P16 Pre-amplifier."}},
  "note": "Structures can show the parent of a compound that is named as a salt.",
  "data": [
    {"smiles": "C[C@H](Cc1ccccc1)Nc1ncnc2c1ncn2[C@@H]1O[C@H](CO)[C@@H](O)[C@H]1O", "note": "[R-PIA, R—N6-phenylisopropyladenosine]", "values": [
      {"measurement": "survival of the outer hair cells", "setting": "noise-exposed cochlea", "value": "increased survival of the outer hair cells"},
      {"measurement": "preservation of auditory thresholds", "setting": "noise-exposed cochlea; topical to RWM", "value": "better preservation of auditory thresholds"}
    ]},
    {"smiles": "OC[C@H]1O[C@@H](n2cnc3c(NC4CCCC4)nc(Cl)nc32)[C@H](O)[C@@H]1O", "note": "[CCPA, 2-Chloro-N^6-cyclopentyladenosine]", "values": [
      {"measurement": "effect on SP thresholds", "setting": "[1]", "value": "did not affect SP thresholds"},
      {"measurement": "post-treatment ABR thresholds for clicks and pure tones", "setting": "[2]", "value": "markedly improved ABR thresholds"},
      {"measurement": "ABR threshold recovery for pure tones (up to)", "setting": "[2]", "value": "up to 20 dB"},
      {"measurement": "ABR threshold recovery for clicks", "setting": "[2]", "value": 20, "unit": "dB"},
      {"measurement": "reduction of nitrotyrosine mean pixel intensity compared to AP control", "setting": "[3]", "value": "22-45%"}
    ]},
    {"smiles": "Nc1ncnc2c1ncn2[C@@H]1O[C@H](CO)[C@@H](O)[C@H]1O", "note": "[adenosine]", "values": [
      {"measurement": "effect on CAP thresholds", "setting": "[4]", "value": "not altered"},
      {"measurement": "effect on SP thresholds", "setting": "[1]", "value": "did not affect SP thresholds"},
      {"measurement": "post-treatment ABR thresholds for clicks and pure tones", "setting": "[2]", "value": "markedly improved ABR thresholds"},
      {"measurement": "ABR threshold recovery for pure tones (up to)", "setting": "[2]", "value": "up to 19 dB"},
      {"measurement": "ABR threshold recovery for clicks", "setting": "[2]", "value": 18, "unit": "dB"},
      {"measurement": "reduction of nitrotyrosine mean pixel intensity compared to AP control", "setting": "[3]", "value": "30-42%"}
    ]},
    {"smiles": "CCNC(=O)[C@H]1O[C@@H](n2cnc3c(N)nc(NCCc4ccc(CCC(=O)O)cc4)nc32)[C@H](O)[C@@H]1O", "note": "[CGS-21680, 2-p-(2-Carboxyethyl)phenethylamino-5′-N-ethylcarboxamidoadenosine hydrochloride hydrate]", "values": [
      {"measurement": "reduction of SP thresholds", "setting": "[1]; at 16 kHz, CGS-21680 200 μM RWM perfusion, p<0.01", "value": 5, "unit": "dB"},
      {"measurement": "post-treatment ABR thresholds for clicks and pure tones", "setting": "[2]", "value": "remained unchanged"},
      {"measurement": "threshold recovery", "setting": "[2]; CGS-21680 200 μM onto RWM 6 hours after noise, FIG. 11(f)", "value": "did not affect threshold recovery"}
    ]},
    {"smiles": "Nc1nc2c(cnn2CCc2ccccc2)c2nc(-c3ccco3)nn12", "note": "[SCH-58261, 7-(2-phenylethyl)-5-amino-2-(2-furyl)-pyrazolo-[4,3-e]-1,2,4-triazolo[1,5-c]pyrimidine]", "values": [
      {"measurement": "effect on the CGS-21680 reduction of SP thresholds", "setting": "[1]; SCH-58261 200 μM in combination with CGS-21680", "value": "inhibited"}
    ]}
  ]
}
